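A five-concentration, 48-hour dose response in 96-well plates underlies each endpoint, interpolated linearly between surrounding concentrations. Here, GI50 denotes the concentration required for 50% inhibition of growth. TGI marks complete inhibition of growth.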
Experiments:
Test in all cases: growth of human tumour cells (NCI), 48 h; in the data active = GI50 below about 0.43 µM; inactive = the rest
OVCAR-8 ovarian = system: OVCAR-8 ovarian
IGROV1 ovarian = system: IGROV1 ovarian
HOP-92 NSCLC = system: HOP-92 NSCLC
SF-268 CNS = system: SF-268 CNS
SK-MEL-5 melanoma = system: SK-MEL-5 melanoma
SR leukemia = system: SR leukemia
SK-OV-3 ovarian = system: SK-OV-3 ovarian
MOLT-4 leukemia = system: MOLT-4 leukemia
HCT-116 colon = system: HCT-116 colon
CCRF-CEM leukemia = system: CCRF-CEM leukemia
HL-60(TB) leukemia = system: HL-60(TB) leukemia
SF-539 CNS = system: SF-539 CNS
M14 melanoma = system: M14 melanoma
OVCAR-5 ovarian = system: OVCAR-5 ovarian
KM12 colon = system: KM12 colon
ACHN renal = system: ACHN renal
SN12C renal = system: SN12C renal
MDA-MB-435 = system: MDA-MB-435
OVCAR-3 ovarian = system: OVCAR-3 ovarian
K-562 leukemia = system: K-562 leukemia
HS 578T breast = system: HS 578T breast
BT-549 breast = system: BT-549 breast
SK-MEL-2 melanoma = system: SK-MEL-2 melanoma
MDA-MB-231 breast = system: MDA-MB-231 breast
786-0 renal = system: 786-0 renal
A549 NSCLC = system: A549 NSCLC
SNB-75 CNS = system: SNB-75 CNS
COLO 205 colon = system: COLO 205 colon
HCT-15 colon = system: HCT-15 colon
EKVX NSCLC = system: EKVX NSCLC
MALME-3M melanoma = system: MALME-3M melanoma
A498 renal = system: A498 renal
NCI/ADR-RES ovarian = system: NCI/ADR-RES ovarian
HT29 colon = system: HT29 colon
SF-295 CNS = system: SF-295 CNS
HOP-62 NSCLC = system: HOP-62 NSCLC
NCI-H522 lung = system: NCI-H522 lung
SK-MEL-28 melanoma = system: SK-MEL-28 melanoma
LOX IMVI melanoma = system: LOX IMVI melanoma
TK-10 renal = system: TK-10 renal
UACC-62 melanoma = system: UACC-62 melanoma
UO-31 renal = system: UO-31 renal
RXF 393 renal = system: RXF 393 renal
DU-145 prostate = system: DU-145 prostate
CAKI-1 renal = system: CAKI-1 renal
SNB-19 CNS = system: SNB-19 CNS
NCI-H23 lung = system: NCI-H23 lung
PC-3 prostate = system: PC-3 prostate
U251 CNS = system: U251 CNS
RPMI-8226 leukemia = system: RPMI-8226 leukemia
T-47D breast = system: T-47D breast
NCI-H226 lung = system: NCI-H226 lung
OVCAR-4 ovarian = system: OVCAR-4 ovarian
HCC-2998 colon = system: HCC-2998 colon
NCI-H460 lung = system: NCI-H460 lung
UACC-257 melanoma = system: UACC-257 melanoma
SW-620 colon = system: SW-620 colon
MCF7 breast = system: MCF7 breast

CCC(CC)n1c(=O)c(SC2=NC3C(NN2)N(CC)C(=O)N3CC)c(C(=O)O)c2ccccc21 (configuration not stated)
1.46 µM: TGI (NCI-H522 lung)
> 55.2 µM: TGI (M14 melanoma)
> 54.1 µM: TGI (NCI-H460 lung)
5.78 µM: TGI (NCI-H226 lung)
> 46.8 µM: TGI (SF-295 CNS)
3.49 µM: TGI (OVCAR-3 ovarian)
2.3 µM: TGI (HL-60(TB) leukemia)
1.83 µM: TGI (COLO 205 colon)
99.2 µM: TGI (HS 578T breast)
> 71.9 µM: TGI (MDA-MB-231 breast)
6.72 µM: TGI (BT-549 breast)
5.01 µM: TGI (MDA-MB-435)
> 55 µM: TGI (SK-MEL-2 melanoma)
> 57 µM: TGI (HOP-62 NSCLC)
32.3 µM: TGI (CAKI-1 renal)
inactive: GI50 (OVCAR-8 ovarian) 1.05 µM | GI50 (IGROV1 ovarian) 1.5 µM | GI50 (HOP-92 NSCLC) 18.3 µM | GI50 (SF-268 CNS) 2.03 µM | GI50 (SK-MEL-5 melanoma) 1.38 µM | GI50 (SR leukemia) 0.805 µM | GI50 (SK-OV-3 ovarian) 1.45 µM | GI50 (MOLT-4 leukemia) 1.15 µM | GI50 (HCT-116 colon) 1.01 µM | GI50 (CCRF-CEM leukemia) 1.13 µM | GI50 (HL-60(TB) leukemia) 0.767 µM | GI50 (SF-539 CNS) 0.811 µM | GI50 (M14 melanoma) 1.05 µM | GI50 (OVCAR-5 ovarian) 1.28 µM | GI50 (KM12 colon) 1.2 µM | GI50 (ACHN renal) 1.58 µM | GI50 (SN12C renal) 1.31 µM | GI50 (MDA-MB-435) 2.03 µM | GI50 (OVCAR-3 ovarian) 0.966 µM | GI50 (K-562 leukemia) 1 µM | GI50 (HS 578T breast) 1.22 µM | GI50 (BT-549 breast) 1.47 µM | GI50 (SK-MEL-2 melanoma) 1.08 µM | GI50 (MDA-MB-231 breast) 1.27 µM | GI50 (786-0 renal) 1.53 µM | GI50 (A549 NSCLC) 1.51 µM | GI50 (SNB-75 CNS) 1.21 µM | GI50 (COLO 205 colon) 0.771 µM | GI50 (HCT-15 colon) 0.969 µM | GI50 (EKVX NSCLC) 6.67 µM | GI50 (MALME-3M melanoma) 2.66 µM | GI50 (A498 renal) 33.7 µM | GI50 (NCI/ADR-RES ovarian) 0.974 µM | GI50 (HT29 colon) 0.909 µM | GI50 (SF-295 CNS) 1.02 µM | GI50 (HOP-62 NSCLC) 1.46 µM | GI50 (NCI-H522 lung) 0.578 µM | GI50 (SK-MEL-28 melanoma) 2.2 µM | GI50 (LOX IMVI melanoma) 1.26 µM | GI50 (TK-10 renal) 14.5 µM | GI50 (UACC-62 melanoma) 1.2 µM | GI50 (UO-31 renal) 1.54 µM | GI50 (RXF 393 renal) 0.805 µM | GI50 (DU-145 prostate) 1.3 µM | GI50 (CAKI-1 renal) 1.22 µM | GI50 (SNB-19 CNS) 1.66 µM | GI50 (NCI-H23 lung) 3.59 µM | GI50 (PC-3 prostate) 1.25 µM | GI50 (U251 CNS) 1.13 µM | GI50 (RPMI-8226 leukemia) 3.76 µM | GI50 (T-47D breast) 6.14 µM | GI50 (NCI-H226 lung) 1.11 µM | GI50 (OVCAR-4 ovarian) 6.56 µM | GI50 (HCC-2998 colon) 1.08 µM | GI50 (NCI-H460 lung) 1.11 µM | GI50 (UACC-257 melanoma) 5.53 µM | GI50 (SW-620 colon) 1.48 µM | GI50 (MCF7 breast) 1.03 µM
> 49 µM: TGI (SR leukemia)
36.5 µM: TGI (UACC-62 melanoma)
7.64 µM: TGI (SK-MEL-5 melanoma)
> 33.7 µM: TGI (HCT-116 colon)
> 87.2 µM: TGI (A498 renal)
> 33.4 µM: TGI (SNB-75 CNS)
2.38 µM: TGI (SF-539 CNS)
> 89.8 µM: TGI (TK-10 renal)
> 94.1 µM: TGI (SK-OV-3 ovarian)
3.28 µM: TGI (RXF 393 renal)
> 100 µM: TGI (IGROV1 ovarian) | TGI (HOP-92 NSCLC) | TGI (SF-268 CNS) | TGI (CCRF-CEM leukemia) | TGI (OVCAR-5 ovarian) | TGI (KM12 colon) | TGI (ACHN renal) | TGI (SN12C renal) | TGI (K-562 leukemia) | TGI (786-0 renal) | TGI (A549 NSCLC) | TGI (HCT-15 colon) | TGI (EKVX NSCLC) | TGI (MALME-3M melanoma) | TGI (SK-MEL-28 melanoma) | TGI (LOX IMVI melanoma) | TGI (UO-31 renal) | TGI (DU-145 prostate) | TGI (SNB-19 CNS) | TGI (NCI-H23 lung) | TGI (PC-3 prostate) | TGI (U251 CNS) | TGI (RPMI-8226 leukemia) | TGI (T-47D breast) | TGI (OVCAR-4 ovarian) | TGI (UACC-257 melanoma) | TGI (SW-620 colon) | TGI (MCF7 breast)
> 48.2 µM: TGI (MOLT-4 leukemia)
